Reference: US20220087969A1, “METHOD FOR TREATING ASTHMA” (Olatec Therapeutics LLC, priority 2019, published 2022)

Legend:
[1] = test system: OVA-induced allergic airway inflammation; assay: Airway resistance in methacholine provocation test, OVA model, i.p. dapansutrile; assay type: in vivo, C57BL/6j mice; conditions: 60 mg/kg i.p., Day 29, 100 mg/mL methacholine
Protocol: C57BL/6j mice were sensitized to OVA (ovalbumin) by three intraperitoneal (i.p.) injections of 10 μg OVA adsorbed to 150 mg aluminum hydroxide on days 1, 14, and 21. This sensitization results in an adoptive immune response against OVA with OVA-specific TH2 cells and the production of OVA-specific antibodies of the subclasses IgE and […]. To induce acute allergic airway inflammation, mice were exposed three times to an OVA aerosol (1% w/v in PBS) on days 26, 27, and 28. Healthy control animals (healthy group) were sham sensitized to PBS and subsequently challenged with PBS aerosol. […] The following readouts were measured according to Lunding, 2015b. • General infiltration of inflammatory cells into the broncheoalveolar lumen • Determination of the specific infiltration of eosinophils, neutrophils and lymphocytes by histologic differentiation of the bronchoalveolar lavage (BAL) cells. • Goblet cell hyperplasia by CAST system (Computer Assisted Stereological Toolbox), including making microscopic pictures of the airways. • Airway resistance in response to methacholine to determine the airway hyperresponsiveness. Specifically, inflammatory cell subpopulations (eosinophils, macrophages, neutrophils, lymphocytes) infiltrating the bronchoalveolar lumen were quantified using cyto-spinned and quick-diff-stained cells from bronchoalveolar lavage fluids (BALF). […]

[2] = test system: OVA-induced allergic airway inflammation; assay: Leukocyte subpopulations in bronchoalveolar lavage fluid, OVA allergic asthma model, i.p. dapansutrile; assay type: in vivo, C57BL/6j mice; conditions: Day 29
Text: A well-established mouse model of experimental allergic asthma (Sel 2008, Wegmann 2005, Wegmann 2007, Lunding 2015a) was used to evaluate dapansutrile as a therapeutic option in allergic bronchial asthma and to determine if dapansutrile would have an impact on airway inflammation and the development of airway hyperresponsiveness (AHR) Inflammation in this model is characterized by the infiltration of eosinophils as well as of TH2 cells and involves the subsequent development of AHR and mucus hyperproduction so that this model resembles the major pathophysiologic hallmarks of human bronchial asthma.
C57BL/6j mice were sensitized to OVA (ovalbumin) by three intraperitoneal (i.p.) injections of 10 μg OVA adsorbed to 150 mg aluminum hydroxide on days 1, 14, and 21. This sensitization results in an adoptive immune response against OVA with OVA-specific TH2 cells and the production of OVA-specific antibodies of the subclasses IgE and IgG4.
To induce acute allergic airway inflammation, mice were exposed three times to an OVA aerosol (1% w/v in PBS) on days 26, 27, and 28.
Healthy control animals (healthy group) were sham sensitized to PBS and subsequently challenged with PBS aerosol. Non-drug treated animals (asthmatic group) and drug-treated animals (treated group) were sensitized by […] and subsequently challenged with OVA aerosol. The treatment group were treated with dapansutrile at 60 mg/kg at days 25, 26, 27, and 28 by intraperitoneal (i.p). injection, whereas the healthy group and the asthmatic group were administered with saline by intraperitoneal injection on days 25, 26, 27, and 28.
Eight animals per group were used. All animals were sacrificed on day 29. The following readouts were measured according to Lunding, 2015b. • General infiltration of inflammatory cells into the broncheoalveolar lumen • Determination of the specific infiltration of eosinophils, neutrophils and lymphocytes by histologic differentiation of the bronchoalveolar lavage (BAL) cells. • Goblet cell hyperplasia by CAST system (Computer Assisted Stereological Toolbox), including making microscopic pictures of the airways. • Airway resistance in response to methacholine to determine the airway hyperresponsiveness.
Specifically, inflammatory cell subpopulations (eosinophils, macrophages, neutrophils, lymphocytes) infiltrating the bronchoalveolar lumen were quantified using cyto-spinned and quick-diff-stained cells from bronchoalveolar lavage fluids (BALF). Further, inflammatory cell infiltration was recorded from hematoxylin and eosin (HE)-stained lung/airway cross-sections. AHR was assessed by recording airway resistance during a methacholine (MCh) provocation test in mice mechanically ventilated by a Buxco FinePoint RC unit. Mucus hyperproduction was quantified in PAS (periodic acid-Schiff)-stained airway cross-sections undergoing systematic, uniform random sampling and subsequent stereologic analysis of mucus amount in the airways and mucus producing goblet cells in the airway mucosa.
Allergic airway inflammation and mucus hyperproduction were assessed on Day 29, 24 hours after the final OVA aerosol challenge and dapansutrile dose.

With `CS(=O)(=O)CCC#N` [dapansutrile, 3-methanesulfonylpropionitrile] as the molecule, how does the “reduction of airway resistance” value ([1]; vs asthmatic mice, p<0.0001) read?
Its value is “about 60%”.

And the “airway resistance in response to methacholine” value ([1]; treated mice, asthmatic 5.61, healthy 2.83)?
The value was 3.93 cm H2O·sec·ml^−1.

And the “reduction in lymphocytes in BALF” value ([2]; 60 mg/kg i.p. days 25-28, vs asthmatic mice)?
Its value is 32%.

What about the “reduction in eosinophils in BALF” value ([2]; 60 mg/kg i.p. days 25-28, vs asthmatic mice, p<0.0001) of the same molecule?
The value was “approximately 60%”.

What about the “reduction in neutrophils in BALF” value ([2]; 60 mg/kg i.p. days 25-28, vs asthmatic mice, p<0.01) of the same molecule?
The value was 70%.

And the “macrophage numbers in BALF” value ([2]; 60 mg/kg i.p., vs asthmatic mice)?
Its value is “no significant reduction”.

What about the “eosinophils in BALF” value ([2]; treated mice, 60 mg/kg i.p. days 25-28, asthmatic 21.96×10^4) of the same molecule?
Its value is 7.30×10^4 cells/ml.

And the “lymphocytes in BALF” value ([2]; treated mice, 60 mg/kg i.p., asthmatic 0.80×10^4)?
The value was 0.55×10^4 cells/ml.

And the “neutrophils in BALF” value ([2]; treated mice, 60 mg/kg i.p., asthmatic 2.41×10^4)?
Its value is 0.70×10^4 cells/ml.
